Measurements from US20210261561A1, “BICYCLIC HETEROCYCLE DERIVATIVES HAVING SELECTIVE BACE1 INHIBITORY ACTIVITY” (SHIONOGI & CO., LTD., priority 2018, published 2021).

Columns and labels:
BACE1 = BACE1 (Homo sapiens, UniProt P56817); experiment: BACE1 biochemical FRET based assay (Test Example 2-1); conditions: for selectivity: BACE2 IC50 over BACE1 IC50 (FRET); for IC50: FRET, 0.04 μg/mL BACE1, 450 minutes, Citrate buffer pH 5.0
Text: This assay is a Fluorescence Resonance Energy Transfer Assay (FRET) based assay. The substrate for this assay is an APP derived 13 amino acids peptide that contains the ‘Swedish’ Lys-Met/Asn-Leu mutation of the amyloid precursor protein (APP) beta-site secretase cleavage site. This substrate also contains two fluorophores: (7-methoxycoumarin-4-yl) acetic acid (Mca) is a fluorescent donor with excitation wavelength at 320 nm and emission at 405 nm and 2,4-dinitrophenol (Dnp) is a proprietary quencher acceptor. […] Upon cleavage by BACE1, the fluorophore Mca is separated from the quenching group Dnp, restoring the full fluorescence yield of the donor. The increase in fluorescence is linearly related to the rate of proteolysis.
Briefly in a 384-well format recombinant BACE1 protein in a final concentration of 0.04 μg/mL is incubated for 450 minutes at room temperature with […] substrate in incubation buffer (final concentrations: 33.3 mM Citrate buffer pH 5.0, 0.033% PEG, 3% DMSO) in the absence or presence of compound. Next the amount of proteolysis is directly measured by fluorescence measurement at T=0′-120′ and T=450′ (excitation at 320 nm and emission at 405 nm). Results are expressed in RFU (Relative Fluorescence Units), as difference between T450 and Tx (Tx is chosen depending on the reaction speed between 0 and 120 minutes.).
A best-fit curve is fitted by a minimum sum of squares method to the plot of % Controlmin versus compound concentration. From this an IC50 value (inhibitory concentration causing 50% inhibition of activity) can be obtained.

BACE2 = target: T1, BACE2 (Homo sapiens, UniProt Q9Y5Z0); experiment: BACE2 biochemical FRET based assay (Test Example 2-1 (2)); conditions: 0.4 μg/mL BACE2, 450 minutes, Citrate buffer pH 5.0
T1 sequence (Q9Y5Z0 63-518): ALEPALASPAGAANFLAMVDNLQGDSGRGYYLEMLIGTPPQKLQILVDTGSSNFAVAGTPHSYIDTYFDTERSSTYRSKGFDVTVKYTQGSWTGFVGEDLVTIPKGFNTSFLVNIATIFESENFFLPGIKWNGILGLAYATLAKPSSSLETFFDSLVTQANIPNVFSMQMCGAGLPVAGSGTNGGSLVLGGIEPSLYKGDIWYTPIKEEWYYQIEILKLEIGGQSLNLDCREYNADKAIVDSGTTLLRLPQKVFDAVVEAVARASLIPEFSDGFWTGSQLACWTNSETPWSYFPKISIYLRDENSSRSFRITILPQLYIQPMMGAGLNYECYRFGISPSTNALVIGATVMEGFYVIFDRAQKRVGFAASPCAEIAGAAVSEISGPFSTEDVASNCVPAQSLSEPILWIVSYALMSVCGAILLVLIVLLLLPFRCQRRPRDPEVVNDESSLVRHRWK
Text: This assay is a Fluorescence Resonance Energy Transfer Assay (FRET) based assay. The substrate for this assay contains the ‘Swedish’ Lys-Met/Asn-Leu mutation of the amyloid precursor protein (APP) beta-secretase cleavage site. This substrate also contains two fluorophores: (7-methoxycoumarin-4-yl) acetic acid (Mca) is a fluorescent donor with excitation wavelength at 320 nm and emission at 405 nm and 2,4-dinitrophenol (Dnp) is a proprietary quencher acceptor. […] Upon cleavage by the beta-secretase, the fluorophore Mca is separated from the quenching group Dnp, restoring the full fluorescence yield of the donor. The increase in fluorescence is linearly related to the rate of proteolysis. Briefly in a 384-well format recombinant BACE2 protein in a final concentration of 0.4 μg/mL was incubated for 450 minutes at room temperature with 10 μM substrate in incubation buffer (final concentrations: 33.3 mM Citrate buffer pH 5.0, 0.033% PEG, 2% DMSO) in the absence or presence of compound. Next the amount of proteolysis was directly measured by fluorescence measurement at T=0 and T=450 (excitation at 320 nm and emission at 405 nm). Results were expressed in RFU (Relative Fluorescence Units), as difference between T450 and TO.
A best-fit curve was fitted by a minimum sum of squares method to the plot of % Controlmin versus compound concentration. From this an IC50 value (inhibitory concentration causing 50% inhibition of activity) can be obtained.

CYP3A4 = target: T2, CYP3A4 (Homo sapiens, UniProt P08684); experiment: CYP3A4(MDZ) MBI test (Test Example 4-2); type: in vitro ADME; conditions: pooled human liver microsomes, 10 μmol/L MDZ, pre-reaction 0 or 30 minutes; shifted IC value
T2 construct: from tissue; host or cells: pooled human liver microsomes
Procedure: CYP3A4(MDZ) MBI test is a test of investigating mechanism based inhibition (MBI) potential on CYP3A4 inhibition of a compound. CYP3A4 inhibition is evaluated using 1-hydroxylation reaction of midazolam (MDZ) by pooled human liver microsomes as a marker reaction.
The reaction conditions were as follows: substrate, 10 μmol/L MDZ; pre-reaction time, 0 or 30 minutes; substrate reaction time, 2 minutes; reaction temperature, 37° C.; protein content of pooled human liver microsomes, 0.5 mg/mL at pre-reaction time, […] (at 10-fold dilution) at reaction time; concentrations of the compound of the present invention, 1, 5, 10, 20 μmol/L (4 points).
Pooled human liver microsomes in a K-Pi buffer (pH 7.4) and a compound of the present invention solution as a pre-reaction solution were added to a 96-well plate at the composition of the pre-reaction. A part of pre-reaction solution was transferred to another 96-well plate, and diluted 10-fold by a substrate in a K-Pi buffer. NADPH as a co-factor was added to initiate the marker reaction (without preincubation). After a predetermined time of the marker reaction, methanol/acetonitrile=1/1 (v/v) solution was added in order to terminate the marker reaction. On the other hand, NADPH was also added to a remaining pre-reaction solution in order to initiate a pre-reaction (with preincubation). After a predetermined time of a pre-reaction, a part was transferred to another 96-well plate, and diluted 10-fold by a substrate in a K-Pi buffer in order to initiate the marker reaction. After a predetermined time of the marker reaction, methanol/acetonitrile=1/1 (v/v) solution is added in order to terminate the marker reaction. After centrifuged at 3000 rpm for 15 minutes, 1-hydroxymidazolam in the supernatant is quantified by LC/MS/MS.
The sample adding DMSO to a reaction system instead of compound of the present invention solution was adopted as a control (100%) because DMSO is used as a solvent to dissolve a compound of the present invention. Remaining activity (%) was calculated at each concentration of the compound of the present invention added as the solution, and IC50 value was calculated by reverse-presumption using a logistic model with a concentration and an inhibition rate. Shifted IC value was calculated as “IC value without preincubation (0 minutes)/IC value with preincubation (30 minutes)”. When a shifted IC value was 1.5 or more, this was defined as positive. When a shifted IC value was less than 1.1, this was defined as negative.

[1] = test system: Abeta 1-37, Abeta 1-38, Abeta 1-40 and Abeta 1-42 in cerebrospinal fluid (CSF); experiment: Pharmacology in the beagle dog, beta-amyloid profile in CSF (Test Example 18-1); type: in vivo
Procedure: Test compounds were tested to evaluate the effect on the beta-amyloid profile in cerebrospinal fluid (CSF) of dogs after a single dose, in combination with pharmacokinetic (PK) follow up and limited safety evaluation.
In the case of compounds shown below, two beagle dogs (1 male, 1 female) were dosed with vehicle (1 mL/kg of an aqueous solution of 20% cyclodextrin) and 4 beagle dogs (2 males and 2 females) were dosed with test compound at the doses indicated in the following Table in an aqueous 20% cyclodextrin solution with a concentration in mg/mL identical to the dose given in mg/kg) on an empty stomach.
CSF was taken in conscious animals directly from the lateral ventricle via a cannula which was screwed in the skull and covered with subcutaneous tissue and skin, before and at 4, 8, 25 and 49 hours after dosing. Eight hours after dosing the animals got access to their regular meal for 30 minutes. Blood was taken for PK follow up (0.5, 1, 2, 4, 8, 25 and 49 hours) and serum samples for biochemistry were taken before and at 8 and 25 h after dosing. The CSF samples were used for measurement of Abeta 1-37, Abeta 1-38, Abeta 1-40 and Abeta 1-42.

[2] = single dose 5 mg/kg, relevant decrease = >20% decrease
[3] = single dose 10 mg/kg, relevant decrease = >20% decrease

T2 sequence (P08684 whole entry): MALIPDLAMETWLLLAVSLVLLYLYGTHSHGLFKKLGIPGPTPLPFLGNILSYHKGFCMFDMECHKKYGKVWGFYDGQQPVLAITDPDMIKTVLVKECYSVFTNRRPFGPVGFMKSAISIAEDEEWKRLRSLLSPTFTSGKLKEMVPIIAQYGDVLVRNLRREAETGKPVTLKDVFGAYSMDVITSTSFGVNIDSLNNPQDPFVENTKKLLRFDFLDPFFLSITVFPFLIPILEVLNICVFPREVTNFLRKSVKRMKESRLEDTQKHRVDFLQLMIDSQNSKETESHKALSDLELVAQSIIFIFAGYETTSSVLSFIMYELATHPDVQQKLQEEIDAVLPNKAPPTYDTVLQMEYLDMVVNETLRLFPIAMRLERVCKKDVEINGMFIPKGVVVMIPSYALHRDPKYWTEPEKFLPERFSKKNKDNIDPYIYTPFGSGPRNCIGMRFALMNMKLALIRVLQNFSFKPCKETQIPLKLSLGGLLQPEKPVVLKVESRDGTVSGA
Sequence of BACE1 (P56817 46-501): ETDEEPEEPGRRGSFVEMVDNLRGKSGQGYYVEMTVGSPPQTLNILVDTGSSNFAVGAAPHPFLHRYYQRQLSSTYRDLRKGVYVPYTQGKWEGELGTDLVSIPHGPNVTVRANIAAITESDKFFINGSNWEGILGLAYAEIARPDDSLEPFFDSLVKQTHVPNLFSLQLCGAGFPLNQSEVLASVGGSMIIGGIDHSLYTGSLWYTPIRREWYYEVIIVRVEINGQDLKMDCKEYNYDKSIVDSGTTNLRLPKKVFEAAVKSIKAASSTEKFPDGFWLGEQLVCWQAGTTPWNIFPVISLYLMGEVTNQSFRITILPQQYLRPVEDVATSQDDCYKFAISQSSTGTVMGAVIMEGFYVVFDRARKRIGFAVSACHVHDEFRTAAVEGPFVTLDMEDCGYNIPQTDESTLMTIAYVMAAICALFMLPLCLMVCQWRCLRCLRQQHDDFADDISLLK

Row | selectivity (BACE1) | IC50 (BACE1) [nM] | IC50 (BACE2) [nM] | MBI MDZ (CYP3A4) | Compound | % Decrease in Abeta 1-42 at 8 h post dosing compared to own baseline ([1]; single dose 0.63 mg/kg) [%] | % Decrease in Abeta 1-42 at 8 h post dosing compared to own baseline ([1]; single dose 2.5 mg/kg) [%] | % Decrease in Abeta 1-42 at 25 h post dosing compared to own baseline ([1]; single dose 2.5 mg/kg, relevant decrease = >20% decrease) [%] | % Decrease in Abeta 1-42 at 8 h post dosing compared to own baseline ([1]; single dose 5 mg/kg) [%] | % Decrease in Abeta 1-42 at 25 h post dosing compared to own baseline [1, 2] [%] | % Decrease in Abeta 1-42 at 8 h post dosing compared to own baseline ([1]; single dose 10 mg/kg) [%] | % Decrease in Abeta 1-42 at 25 h post dosing compared to own baseline [1, 3] [%] | % Decrease in Abeta 1-42 at 49 h post dosing compared to own baseline ([1]; single dose 10 mg/kg, 49 h, relevant decrease = >20% decrease) [%]
1 | 166 | 13.2 | 2190 | Negative | NC1=N[C@](CF)(c2cc(NC(=O)c3cc4c(cn3)OC(F)(F)O4)ccc2F)[C@H]2COCC[C@H]2O1 [Compound I-036] | – | – | – | – | – | – | – | –
2 | – | – | – | Negative | CC1(C)C(N)=N[C@](C)(c2cc(NC(=O)c3cc4c(cn3)OC(F)(F)O4)ccc2F)CS1(=O)=O [Compound I-027] | – | – | – | – | – | – | – | –
3 | – | – | – | Negative | [2H]C1([2H])Oc2cnc(C(=O)Nc3ccc(F)c([C@]4(C)CS(=O)(=O)C(C)(C)C(N)=N4)c3)cc2OC1([2H])[2H] [Compound I-026] | – | – | – | – | – | – | – | –
4 | 136 | 3.6 | 490 | Negative | C[C@H]1OC[C@H]2[C@@H]1OC(N)=N[C@]2(CF)c1cc(NC(=O)c2cc3c(cn2)OC(F)(F)CO3)ccc1F [Compound I-049] | – | – | – | – | – | – | – | –
5 | 200 | 10 | 2000 | – | C[C@@H]1C[C@H]2OC(N)=N[C@](CF)(c3cc(NC(=O)c4cc5c(cn4)OC(F)(F)CO5)ccc3F)[C@H]2CO1 [Compound I-053] | −31 | −50 | −27 | – | – | – | – | –
6 | 301 | 2.2 | 661 | Negative | NC1=N[C@](CF)(c2cc(NC(=O)c3cc4c(cn3)OC(F)(F)CO4)ccc2F)[C@H]2COCC[C@H]2O1 [Compound I-035] | – | −52 | – | −63 | −27 | −82 | −28 | –
7 | 263 | 8.32 | 2190 | Negative | NC1=N[C@](CF)(c2cc(NC(=O)c3cc4c(cn3)OC(F)(F)CO4)ccc2F)[C@H]2CCOC[C@H]2O1 [Compound I-046] | – | – | – | – | – | – | – | –
8 | 18.7 | 2.9 | 53.7 | Negative | CN1C(N)=N[C@](C)(c2cc(NC(=O)c3cc4c(cn3)OC(F)(F)O4)ccc2F)CS1(=O)=O [Compound I-012] | – | – | – | – | – | – | – | –
9 | 15.9 | 1.2 | 18.6 | Negative | CN1C(N)=N[C@](C)(c2cc(NC(=O)c3cc4c(cn3)OC(F)(F)CO4)ccc2F)CS1(=O)=O [Compound I-011] | – | – | – | −54 | −37 | −74 | −77 | −30
10 | – | – | – | Negative | CC1(C)C(N)=N[C@](C)(c2cc(NC(=O)c3cc4c(cn3)OC(F)(F)CO4)ccc2F)CS1(=O)=O [Compound I-024] | −40 | −66 | – | – | – | – | – | –
